This is an account of results in patent US9695155B2, “Herbicidal substituted pyrimidinyloxy benzene compounds” (E. I. DU PONT DE NEMOURS AND COMPANY, priority 2013, dated 2017).

The subject of assay [1] is oilseed rape. Description: Test D postemergence. Format: in vivo, Brassica napus. The settings on record: Brassica napus, post-emergence, scale 0 to 100 (0 no effect, 100 complete control), read-out: Plant response rating, Oilseed Rape. The procedure, abridged: (§1)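 Visual ratings from 0 (no effect) to 100 (complete control) relative to untreated plants were taken 7–21 days after treatment. Chemicals in a surfactant-containing solvent mixture were applied preemergence to seeds in silt loam, or postemergence to plants 2–18 cm tall (1–4 leaves) grown in a peat-based potting medium.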

Assay [2] relates to pigweed. The assay is described as follows: Test D postemergence. To be noted: Amaranthus retroflexus, post-emergence, scale 0 to 100 (0 no effect, 100 complete control), read-out: Plant response rating, Pigweed. It counts as in vivo, Amaranthus retroflexus. The procedure, abridged: as §1
The test system of assay [3] is field violet. The assay is described as follows: Test D postemergence. Format: in vivo, Viola arvensis. To be noted: Viola arvensis, post-emergence, scale 0 to 100 (0 no effect, 100 complete control), read-out: Plant response rating, Field Violet. The gist of the method: as §1
Assay [4] has as its system kochia. Description: Test D postemergence. It counts as in vivo, Kochia scoparia. The settings on record: Bassia scoparia, post-emergence, scale 0 to 100 (0 no effect, 100 complete control), read-out: Plant response rating, Kochia. The gist of the method: as §1
The subject of assay [5] is lambsquarters. The assay is described as follows: Test D preemergence. Format: in vivo, Chenopodium album. To be noted: Chenopodium album, pre-emergence, scale 0-100, read-out: Plant response rating, Lambsquarters. The gist of the method:
as §1

Assay [6] relates to chickweed. The assay is described as follows: Test D postemergence. Format: in vivo, Stellaria media. To be noted: Stellaria media, post-emergence, scale 0 to 100 (0 no effect, 100 complete control), read-out: Plant response rating, Chickweed. The procedure, abridged:
as §1

Assay [7] deals with ragweed. The assay is described as follows: Test E postemergence. Format: in vivo, Ambrosia elatior. The source says: Seeds of plant species selected from corn (Zea mays), soybean (Glycine max), velvetleaf (Abutilon theophrasti), lambsquarters (Chenopodium album), wild poinsettia (Euphorbia heterophylla), palmer pigweed (Amaranthus palmeri), waterhemp (common waterhemp, Amaranthus rudis), surinam grass (Brachiaria decumbens), large (Lg) crabgrass (Digitaria sanguinalis), Brazilian crabgrass (Digitaria horizontalis), fall panicum (Panicum dichotomiflorum), giant foxtail (Setaria faberii), green foxtail (Setaria viridis), goosegrass (Eleusine indica), johnsongrass (Sorghum halepense), ragweed (common ragweed, Ambrosia elatior), barnyardgrass (Echinochloa crus-galli), sandbur (southern sandbur, Cenchrus echinatus), arrowleaf sida (Sida rhombifolia), Italian ryegrass (Lolium multiflorum), dayflower (Virginia (VA) dayflower, Commelina virginica), field bindweed (Convolvulus arvensis), morningglory (Ipomoea coccinea), nightshade (eastern black nightshade, Solanum ptycanthum), kochia (Kochia scoparia), yellow nutsedge (Cyperus esculentus), cocklebur (common cocklebur, Xanthium strumarium), smartweed (ladysthumb smartweed, and hairy beggarticks (Bidens pilosa), were planted into a silt loam soil and treated preemergence with test chemicals formulated in a non-phytotoxic solvent mixture which included a surfactant.
At the same time, plants from these crop and weed species and also horseweed (Canada horseweed, Conyza canadensis), waterhemp_RES1, (ALS & Triazine resistant common waterhemp, Amaranthus rudis), and waterhemp_RES2, (ALS & HPPD resistant common waterhemp, Amaranthus rudis) were planted in pots containing Redi-Earth® planting medium (Scotts Company, 14111 Scottslawn Road, Marysville, Ohio 43041) comprising spaghnum peat moss, vermiculite, wetting agent and starter nutrients were treated with postemergence applications of test chemicals formulated in the same manner. Plants ranged in height from 2 to 18 cm for postemergence treatments (1- to 4-leaf stage). Treated plants and controls were maintained in a greenhouse for 14 to 21 days, after which time all species were compared to controls and visually evaluated. Plant response ratings, summarized in Table E, are based on a scale of 0 to 100 where 0 is no effect and 100 is complete control. A dash (-) response means no test result.

Assay [8] deals with ragweed. The assay is described as follows: Test F preemergence. To be noted: 21 days, scale 0 to 100. It counts as in vivo, Ambrosia elatior. The gist of the method: (§2)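 Seeds are planted in a blend of loam and sand. Chemicals in a surfactant-containing non-phytotoxic solvent are applied before emergence. After 21 days under greenhouse conditions, plants are compared with controls and scored visually, 0–100.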

The subject of assay [9] is leafy spurge. The assay is described as follows: Test F preemergence. To be noted: 21 days, scale 0 to 100. It counts as in vivo, Euphorbia esula. The gist of the method:
as §2

The mark [10] stands for this setting: Postemergence, 31 g ai/ha, scale 0 to 100.
Where [11] appears, read: Postemergence, 62 g ai/ha, scale 0 to 100.
The mark [12] stands for this setting: Postemergence, 125 g ai/ha, scale 0 to 100.
The mark [13] stands for this setting: postemergence, 16 g ai/ha, scale 0 to 100, 0 no effect, 100 complete control.

Regarding `N#Cc1cccc(Oc2ncc(Cl)cn2)c1-n1cc(Br)cn1` [Compound 52, 2-(4-bromo-1H-pyrazol-1-yl)-3-[(5-chloro-2-pyrimidinyl)oxy]benzonitrile], in [1] (31 g ai/ha), the plant injury at 31 g/ha was found to be 55%. Further, in assay [1] (62 g ai/ha), the plant injury at 62 g/ha is 65%. In addition, the plant injury at 125 g/ha in assay [1] (125 g ai/ha) came out at 85%. For the same compound, the plant injury at 250 g/ha in [1] (250 g ai/ha) was 95%. In addition, the pest or weed control at 31 g/ha in [2] (31 g ai/ha) is 80%; in assay [3] (31 g ai/ha) it was 100%; in assay [4] (31 g ai/ha) it was 80%; in assay [5] (31 g ai/ha), 80%; in assay [6] (31 g ai/ha), 60%. Besides, the pest or weed control at 62 g/ha came out at 85% in assay [2] (62 g ai/ha); 100% in assay [3] (62 g ai/ha); 90% in [4] (62 g ai/ha); 100% in assay [5] (62 g ai/ha); 70% in assay [6] (62 g ai/ha). For the same compound, the pest or weed control at 125 g/ha in assay [2] (125 g ai/ha) worked out at 85%; in [3] (125 g ai/ha), 100%; in [4] (125 g ai/ha) it was 90%; in [5] (125 g ai/ha) it was 100%; in assay [6] (125 g ai/ha), 85%. In addition, the pest or weed control at 250 g/ha in [2] (250 g ai/ha) turned out to be 95%; in assay [3] (250 g ai/ha), 100%; in [4] (250 g ai/ha) it was 90%; in assay [5] (250 g ai/ha), 100%; in assay [6] (250 g ai/ha), 90%. In addition, the “Plant response rating, Ragweed” value in [7] (setting [10]) is 50; in assay [7] (setting [11]) it was 55; in assay [7] (setting [12]), 60; in assay [7] (setting [13]) it was 40.

Take `N#Cc1cccc(Oc2ncc(F)cn2)c1-n1cc(C(F)(F)F)cn1` [Compound 79, 3-[(5-fluoro-2-pyrimidinyl)oxy]-2-[4-(trifluoromethyl)-1H-pyrazol-1-yl]benzonitrile]: the “Plant response rating, Ragweed” value is 25 in assay [8] (16 g ai/ha); 70 in [8] (31 g ai/ha); 98 in assay [8] (62 g ai/ha); 100 in assay [8] (125 g ai/ha); 100 in assay [8] (250 g ai/ha); 40 in [7] (setting [10]). The “Plant response rating, Ragweed” value in assay [7] (setting [11]) is on record as 50; in assay [7] (setting [12]), 60; in [7] (setting [13]), 30. For the same compound, the “Plant response rating, Leafy Spurge” value in assay [9] (16 g ai/ha) stood at 95; in [9] (31 g ai/ha), 98; in assay [9] (62 g ai/ha), 100; in assay [9] (125 g ai/ha), 100; in assay [9] (250 g ai/ha) it was 100.
